According to patent US11261201B2 (priority 2018, dated 2022):
In brackets after ≈: the same amount, converted by molar mass. Structures can show the parent of a compound that is named as a salt. Where two headings read alike, the source gives them in different places.

Assays:
H37RvMA = test: Tuberculosis Alamar Blue/Resazurin assay (MIC); assay type: cell-based
E. coli K-12 = test: Resistance development on LB-agar plates, combination therapy; settings: B1 in combination with anti-LeuS Tavaborole, adjusted for dose equivalence; 10^8 cells plated, 37° C., 24 hours; multiple independent experiments (FIG. 1)
Procedure: Experimental details: Cultures of E. coli K-12 were started from single colonies on LB-agar plates and were grown in LB for 36 hours with shaking at 37° C. Following that, 10^8 cells were plated on LB-agar plates containing B1 or Tavaborole alone or in combination adjusted for dose equivalence and incubated at 37° C. for 24 hours.

E. coli = test: Gram negative MIC protocol (OD600, LB, 24 h); settings: Escherichia coli
Procedure: (§1) Overnight bacterial cultures were grown in LB with no added antibiotics at 37° C. with shaking. A 1:1000 dilution of these cultures into LB was exposed to concentration gradients of compounds in 96-well plates (100 μL per well assay volume). Resulting plates were incubated at 37° C. for 24 h without shaking, and OD600 was measured at the end of the incubation. MICs were determined as the lowest concentrations at which OD600 remained at baseline.

A. baumannii = test: Gram negative MIC protocol (OD600, LB, 24 h); settings: Acinetobacter baumannii
Procedure: as §1

[1] = read-out: MIC E. coli delta-TolC LB Media, E. coli delta-TolC, LB media, OD600
[2] = read-out: MIC WT E. coli LB Media, WT E. coli, LB media, OD600
[3] = read-out: MIC A. baumannii LB Media
[4] = Mycobacterium tuberculosis, H37RV, WT H37Rv MTB; read-out: WT H37Rv MTB Activity
[5] = read-out: MIC A. baumannii LB Media, A. baumannii, LB media, 24 h, OD600
[6] = read-out: MIC E. coli delta-TolC LB Media, E. coli delta-TolC strain, LB media, 24 h, OD600
[7] = read-out: MIC WT E. coli LB Media, wild-type E. coli, LB media, 24 h, OD600
[8] = Mycobacterium tuberculosis, H37RV; read-out: WT H37Rv MTB Activity

SMILES	MIC (H37RvMA; Mycobacterium tuberculosis, H37RV, read-out: WT H37Rv MTB Activity)	development of resistance (E. coli K-12)	MIC (E. coli; [1])	MIC (E. coli; [2])	MIC (A. baumannii; [3])	MIC (H37RvMA; [4])	MIC (A. baumannii; [5])	MIC (E. coli; [6])	MIC (E. coli; [7])	MIC (H37RvMA; [8])
C1=C(CCNCc2ccccc2)CCCC1 [B1, N-benzyl-2-(cyclohex-1-en-1-yl)ethan-1-amine]	> 150 µM	did not develop resistance	46 µM (≈ 9.91 µg/mL)	60 µM (≈ 12.9 µg/mL)	150 µM (≈ 32.3 µg/mL)					
O=C1Cc2ccccc2CN1CCc1ccccc1 [B421, 2-phenethyl-1,4-dihydroisoquinolin-3(2H)-one]			> 150 µM	> 150 µM		55.1 µM (≈ 13.8 µg/mL)	> 150 µM			
c1ccc(CNC(CC2CCCCC2)C2CC2)cc1 (stereo not shown) [B167, N-benzyl-2-cyclohexyl-1-cyclopropylethanamine]			> 300 µM	> 300 µM		> 150 µM	> 300 µM			
CC(CC1CCCCC1)NCc1ccccc1CC(N)C(=O)O (stereo not shown) [B466, 2-amino-3-(2-(((1-cyclohexylpropan-2-yl)amino)methyl)phenyl)propanoic acid]			> 150 µM	> 150 µM		> 55 µM	> 150 µM			
c1ccc(CNCCC2CCNCC2)cc1 [B215, N-benzyl-2-(piperidin-4-yl)ethanamine hydrochloride]						> 150 µM	> 300 µM	> 300 µM	> 300 µM	
C[C@H](CC1=CCCCC1)NCc1ccccc1 [B170]			> 300 µM	> 300 µM	> 300 µM					> 150 µM
CCC(CC1CCCCC1)NCc1ccccc1F (stereo not shown) [B166, 1-cyclohexyl-N-(2-fluorobenzyl)butan-2-amine hydrochloride]			250 µM	> 300 µM		> 150 µM	300 µM			
CC(CC1CCCCC1)NCc1ccccc1OCCCOCC(F)(F)F (stereo not shown) [B304]						91 µM (≈ 35.3 µg/mL)	> 150 µM	3 µM (≈ 1.16 µg/mL)	> 150 µM	
CC(CC1CCCCC1)NCc1ccccc1OCC(=O)NC(=O)NC(C)(C)C (stereo not shown) [B325]						91 µM (≈ 36.7 µg/mL)	150 µM (≈ 60.5 µg/mL)	4 µM (≈ 1.61 µg/mL)	> 150 µM	
CC(C)CCNCc1ccccc1 [B2]			> 150 µM	> 150 µM		> 150 µM	> 150 µM			
CC(CC1CCCCC1)NCc1ccccc1OCC1CN(C)C(=O)O1 (stereo not shown) [B372]						> 150 µM	> 150 µM	5 µM (≈ 1.8 µg/mL)	150 µM (≈ 54.1 µg/mL)	
CC(NCc1ccccc1)C1CC2CCC1CC2 (stereo not shown) [B62]			> 150 µM	> 150 µM		> 150 µM	> 150 µM			
CSCCCOc1ccccc1CNC(C)CC1CCCCC1 (stereo not shown) [B364]						91 µM (≈ 30.5 µg/mL)	150 µM (≈ 50.3 µg/mL)	3 µM (≈ 1.01 µg/mL)	150 µM (≈ 50.3 µg/mL)	
c1cc(CNCCC2CCCCC2)c2c(c1)OCO2 [B374]						150 µM (≈ 39.2 µg/mL)	> 150 µM	> 150 µM	> 150 µM	
CC(CC1CCCCC1)NCc1ccccc1OCC(=O)N1CCOC(C)C1 (stereo not shown) [B316]						> 150 µM	> 150 µM	7 µM (≈ 2.72 µg/mL)	> 150 µM	
CC(NCc1ccccc1)C12CCC(CC1)CC2 (stereo not shown) [B87]			> 150 µM	300 µM (≈ 73 µg/mL)		> 150 µM	> 150 µM			
O=C1Cc2ccccc2CN1CCC1CCCC1 [B427, 2-(2-cyclopentylethyl)-1,4-dihydroisoquinolin-3(2H)-one]			> 150 µM	> 150 µM		2.7 µM (≈ 0.657 µg/mL)	> 150 µM			
NS(=O)(=O)c1ccccc1CNCCC1CCCCC1 [B345]						> 150 µM	33 µM (≈ 9.78 µg/mL)	20 µM (≈ 5.93 µg/mL)	> 150 µM	
C1=CC(CCNCc2ccccc2)CCC1 (stereo not shown) [B160]			> 150 µM	> 150 µM	> 150 µM					> 150 µM
CC(NCc1ccccc1)C1Cc2ccccc21 (stereo not shown) [B110]			> 150 µM	> 150 µM		> 150 µM	> 150 µM			
c1ccc(CNCCC2CC3CCC2O3)cc1 (stereo not shown) [B66]			> 150 µM	> 150 µM		> 150 µM	> 150 µM			
c1ccc(CNCCC2CCCCN2)cc1 (stereo not shown) [B360]						> 150 µM	> 150 µM	> 150 µM	> 150 µM	
CNC(=O)COc1ccccc1CNC(C)CC1CCCCC1 (stereo not shown) [B243]						> 150 µM	> 150 µM	12 µM (≈ 3.82 µg/mL)	> 150 µM	
COC(=O)c1occc1COc1ccccc1CNC(C)CC1CCCCC1 (stereo not shown) [B265]						91 µM (≈ 35.1 µg/mL)	91 µM (≈ 35.1 µg/mL)	3 µM (≈ 1.16 µg/mL)	150 µM (≈ 57.8 µg/mL)	
